Data reported in patent publication US9409952B2, “Peptide-compound cyclization method” (Chugai Seiyaku Kabushiki Kaisha, priority 2011, dated 2016).
Like-named read-outs stand apart in the source and are kept apart here. Starred links: 1 amine or outer side, 2 acyl side, 3 side chain; linkers in the order of their positions; H or OH if unused. Positions of bridges follow the written chain, without caps; N, C: chain ends. Non-standard residues stand in square brackets, D forms with d. Residues, ends and D or L forms follow the SMILES beside them. *: point of attachment. Arg(Me2s) = CN=C(NC)NCCC[C@H](N)C(=O)O; Lys(Me2) = CN(C)CCCC[C@H](N)C(=O)O; NMeF = CN[C@@H](Cc1ccccc1)C(=O)O; NMeGABA = CN(CCCC(=O)[*:2])[*:1]; NMeI = CC[C@H](C)[C@H](NC)C(=O)O; NMeβAla = CN(CCC(=O)[*:2])[*:1]; NMeL = CN[C@@H](CC(C)C)C(=O)O; NMeV = CN[C@H](C(=O)O)C(C)C; NMeA = CN[C@@H](C)C(=O)O; Piperidide = C1CCN(*)CC1; dNMeA = CN[C@H](C)C(=O)O; Sar = CNCC(=O)O; tBu = CC(C)(C)*

Experiment: PAMPA (parallel artificial membrane permeability assay)
Assay type: in vitro ADME
Conditions: PAMPA
Method: 4 μL of a phospholipid-organic solvent solution composed of 10% (w/v) of egg lecithin, 0.5% (w/v) of cholesterol and dodecane (all purchased from Fluka) was added to a Millipore 96-well membrane filter (hydrophobic PVDF (polyvinylidene difluoride), pore size 0.45 microm) (purchased from Millipore Japan) to make an artificial phospholipid membrane.
A DMSO solution containing the compound at a concentration of 10 mM was added in a percentage of 0.5% (v/v) to a 50 mM MOPSO buffer, pH 6.5, containing 5.0% (w/v) of glycocholic acid, and 330 μL of the mixture was added to a 96-well plate made of Teflon (donor plate). The above artificial phospholipid membrane plate was attached onto the donor plate, and 280 μL of a solution obtained by adding DMSO in a percentage of 0.5% (v/v) to a 50 mM MOPSO buffer, pH 6.5, containing 5.0% (w/w) of glycocholic acid was added onto the artificial phospholipid membrane (acceptor plate). These plates were allowed to stand at 37° C. for 18 hours, after which the concentrations of the compound in the solutions in the donor plate and the acceptor plate were measured by LC/MS or LC/UV, and the membrane permeation rate of the compound (Pe) was calculated by the following formulas (1) and (2), where t is the testing time, A is the membrane filter area, VD is the amount of the donor solution, VA is the amount of the acceptor solution, CD,t is the concentration of the compound in the donor solution at the time t, and CA,t is the concentration of the compound in the acceptor solution at the time t.

[1] = membrane permeation rate (Pe), 50 mM MOPSO buffer pH 6.5 with 5.0% glycocholic acid, 37° C., 18 hours, read-out: iPAMPA Pe

SMILES	Papp at 18 hours, 50 µM [1] [×10⁻⁶ cm/s]	Papp at 18 hours, 50 µM (pH 6.5) [×10⁻⁶ cm/s]	other results
CC(C)C[C@H]1C(=O)N(C)[C@@H](Cc2ccccc2)C(=O)N(C)[C@@H](Cc2ccccc2)C(=O)N[C@@H]([C@@H](C)O)C(=O)N(C)[C@@H](C)C(=O)N(C)[C@@H](CC(C)C)C(=O)N[C@H](C(=O)N2CCCCC2)CC(=O)N(C)[C@H](C)C(=O)N(C)[C@@H](CC(C)C)C(=O)N(C)[C@@H](CC(C)C)C(=O)N[C@@H](C)C(=O)N1C [DP-166] ([dNMeA][NMeL][NMeL]A[NMeL][NMeF][NMeF]T[NMeA][NMeL]D-Piperidide; lactam N-11)	55	–	–
CC(C)C[C@H]1C(=O)N(C)[C@@H](CC(C)C)C(=O)N[C@H](C(=O)N(C)[C@@H](Cc2ccccc2)C(=O)N[C@@H](C)C(=O)N2CCCCC2)CC(=O)N[C@H](C(C)C)C(=O)N(C)[C@@H](C)C(=O)N(C)[C@@H](Cc2ccccc2)C(=O)N(C)[C@@H](CC(C)C)C(=O)N[C@@H](Cc2c[nH]cn2)C(=O)N(C)CC(=O)N[C@@H](C(C)C)C(=O)N1C [DP-585] ([dV][NMeA][NMeF][NMeL]H[Sar]V[NMeL][NMeL]D[NMeF]A-Piperidide; lactam N-10)	15	–	–
CC[C@H](C)[C@H]1C(=O)N[C@H](C(=O)N2CCCCC2)CC(=O)N[C@H](C)C(=O)N[C@@H]([C@@H](C)O)C(=O)N(C)[C@@H](C)C(=O)N(C)[C@@H](C(C)C)C(=O)N[C@@H](Cc2ccccc2)C(=O)N(C)CC(=O)N(C)[C@@H](CC(C)C)C(=O)N[C@@H](C)C(=O)N1C [DP-71] ([dA]T[NMeA][NMeV]F[Sar][NMeL]A[NMeI]D-Piperidide; lactam N-10)	–	5.4	–
CC(C)C[C@H]1C(=O)N[C@H](C(=O)N(C)[C@@H](Cc2ccccc2)C(=O)N[C@@H](C)C(=O)N2CCCCC2)CC(=O)N(C)[C@@H](C)C(=O)N[C@@H]([C@@H](C)O)C(=O)N(C)[C@@H](Cc2ccccc2)C(=O)N(C)[C@@H](CC(C)C)C(=O)N(C)[C@@H](CC(C)C)C(=O)N[C@@H](C)C(=O)N(C)[C@@H](Cc2ccccc2)C(=O)N(C)[C@@H](CC(C)C)C(=O)N1C [DP-192] ([NMeA]T[NMeF][NMeL][NMeL]A[NMeF][NMeL][NMeL]D[NMeF]A-Piperidide; lactam N-10)	0.64	–	–
CC(C)C[C@@H]1NC(=O)[C@H](CC(C)C)N(C)C(=O)[C@H](C)N(C)C(=O)C[C@@H](C(=O)N(C)[C@@H](Cc2ccccc2)C(=O)N[C@@H](C)C(=O)N2CCCCC2)NC(=O)[C@H]([C@@H](C)O)NC(=O)[C@H](CC(C)C)N(C)C(=O)[C@H](Cc2ccccc2)NC(=O)[C@H](Cc2ccccc2)N(C)C(=O)[C@H](CC(C)C)N(C)C1=O [DP-387] ([NMeA][NMeL]L[NMeL][NMeF]F[NMeL]TD[NMeF]A-Piperidide; lactam N-9)	2.8	–	–
COCCc1ccc(OCC(O)CNC(C)C)cc1 (centres unmarked) [metoprolol, reference compound]	–	–	Papp at 18 h, 50 µM: 29 ×10⁻⁶ cm/s
CC(C)C[C@@H]1NC(=O)[C@H](CCCCN(C)C)NC(=O)[C@@H]2CCCN2C(=O)[C@H](C)NC(=O)[C@H](CC(C)C)N(C)C(=O)[C@H](Cc2ccccc2)NC(=O)[C@H](CC(C)C)N(C)C(=O)[C@H](CC(C)C)N(C)C(=O)[C@H](Cc2ccccc2)NC(=O)CN(C)C(=O)C[C@@H](C(=O)N(C)[C@@H](Cc2ccccc2)C(=O)N[C@@H](C)C(=O)N2CCCCC2)NC1=O [DP-593] ([Sar]F[NMeL][NMeL]F[NMeL]AP[Lys(Me2)]LD[NMeF]A-Piperidide; lactam N-11)	–	1.1	–
CC[C@H](C)[C@@H]1NC(=O)[C@@H](C)N(C)C(=O)C[C@@H](C(=O)N(C)[C@@H](Cc2ccccc2)C(=O)N[C@@H](C)C(=O)N2CCCCC2)NC(=O)[C@H](Cc2ccccc2)NC(=O)[C@H]([C@@H](C)O)NC(=O)[C@@H]2CCCN2C(=O)CNC(=O)[C@H](CC(C)C)N(C)C(=O)[C@H](Cc2ccccc2)N(C)C(=O)[C@H](CC(C)C)N(C)C(=O)[C@H](CC(C)C)NC1=O [DP-283] ([dNMeA]IL[NMeL][NMeF][NMeL]GPTFD[NMeF]A-Piperidide; lactam N-11)	–	1.5	–
CC[C@H](C)[C@@H]1NC(=O)[C@H](C)N(C)C(=O)[C@H](CC(C)C)N(C)C(=O)CCCN(C)C(=O)C[C@@H](C(=O)N(C)[C@@H](Cc2ccccc2)C(=O)N[C@@H](C)C(=O)N2CCCCC2)NC(=O)[C@H](CC(C)C)N(C)C(=O)[C@H](C)N(C)C(=O)[C@H]([C@@H](C)O)NC(=O)[C@H](Cc2ccccc2)N(C)C(=O)[C@H](Cc2ccccc2)N(C)C(=O)[C@H](CC(C)C)N(C)C1=O [DP-366] ([NMeGABA][NMeL][NMeA]I[NMeL][NMeF][NMeF]T[NMeA][NMeL]D[NMeF]A-Piperidide; lactam N-11)	14	–	–
CC(C)C[C@@H]1NC(=O)[C@H](CC(C)C)N(C)C(=O)CCN(C)C(=O)C[C@@H](C(=O)N(C)[C@@H](Cc2ccccc2)C(=O)N[C@@H](C)C(=O)N2CCCCC2)NC(=O)[C@H](CC(C)C)N(C)C(=O)[C@H](Cc2ccccc2)NC(=O)[C@H](Cc2ccccc2)N(C)C(=O)[C@H](C)NC(=O)[C@H]([C@@H](C)O)NC(=O)[C@H](CC(C)C)N(C)C1=O [DP-369] ([NMeβAla][NMeL]L[NMeL]TA[NMeF]F[NMeL]D[NMeF]A-Piperidide; lactam N-10)	26	–	–
CC(C)C[C@H]1C(=O)N(C)[C@@H](C)C(=O)N[C@@H](COC(C)(C)C)C(=O)N(C)[C@@H](C(C)C)C(=O)N[C@H](C(=O)N2CCCCC2)CC(=O)N(C)[C@@H](C)C(=O)N(C)[C@@H](Cc2ccccc2)C(=O)N[C@@H](C)C(=O)N(C)[C@@H](C)C(=O)N[C@@H](Cc2ccccc2)C(=O)N[C@@H]([C@@H](C)O)C(=O)N(C)[C@@H](C)C(=O)N1C [DP-317] ([NMeA][NMeF]A[NMeA]FT[NMeA][NMeL][NMeA]S(tBu)[NMeV]D-Piperidide; lactam N-12)	20	–	–
C/N=C(\NC)NCCC[C@@H]1NC(=O)[C@H](CC(C)C)N(C)C(=O)[C@H](Cc2ccccc2)N(C)C(=O)[C@H](C)N(C)C(=O)[C@@H](C(C)C)NC(=O)C[C@@H](C(=O)N(C)[C@@H](Cc2ccccc2)C(=O)N[C@@H](C)C(=O)N2CCCCC2)NC(=O)[C@H](CC(C)C)N(C)C(=O)[C@H](CC(C)C)N(C)C(=O)[C@H](C(C)C)NC(=O)CN(C)C1=O [DP-590] ([dV][NMeA][NMeF][NMeL][Arg(Me2s)][Sar]V[NMeL][NMeL]D[NMeF]A-Piperidide; lactam N-10)	1.4	–	–
CC[C@H](C)[C@H](NC(=O)[C@H](CC(C)C)NC(=O)[C@H](Cc1ccccc1)NC(=O)[C@@H]1CCCN1C(=O)[C@H](CC(C)C)NC(=O)[C@@H]1CC(=O)N[C@@H](Cc2ccccc2)C(=O)N(C)[C@@H](Cc2ccccc2)C(=O)N(C)[C@@H](CC(C)C)C(=O)N[C@@H]([C@@H](C)O)C(=O)N(C)[C@@H](C)C(=O)N(C)[C@@H](CC(C)C)C(=O)N1)C(=O)N1CCCCC1 [DP-910] (F[NMeF][NMeL]T[NMeA][NMeL]DLPFLI-Piperidide; lactam N-7)	0.16	–	–
CC[C@H](C)[C@@H]1NC(=O)[C@H](C)N(C)C(=O)C[C@@H](C(=O)N(C)[C@@H](Cc2ccccc2)C(=O)N[C@@H](C)C(=O)N2CCCCC2)NC(=O)[C@H](Cc2ccccc2)N(C)C(=O)CN(C)C(=O)[C@H]([C@@H](C)O)NC(=O)[C@H](C)N(C)C(=O)[C@H](C(C)C)N(C)C(=O)[C@H](CC(C)C)N(C)C(=O)[C@H](Cc2ccccc2)NC(=O)[C@H](CC(C)C)N(C)C1=O [DP-279] ([NMeA]I[NMeL]F[NMeL][NMeV][NMeA]T[Sar][NMeF]D[NMeF]A-Piperidide; lactam N-11)	–	15	–
CC[C@H](C)[C@@H]1NC(=O)[C@H](Cc2ccccc2)N(C)C(=O)[C@H](C)N(C)C(=O)[C@H](CC(C)C)N(C)C(=O)[C@H](Cc2ccccc2)N(C)C(=O)CCN(C)C(=O)C[C@@H](C(=O)N(C)[C@@H](Cc2ccccc2)C(=O)N(C)[C@@H](Cc2ccccc2)C(=O)N[C@@H](C)C(=O)N2CCCCC2)NC(=O)[C@H]([C@@H](C)O)NC(=O)[C@H](CC(C)C)N(C)C(=O)[C@H](CC(C)C)N(C)C1=O [DP-499] ([NMeβAla][NMeF][NMeL][NMeA][NMeF]I[NMeL][NMeL]TD[NMeF][NMeF]A-Piperidide; lactam N-10)	0.31	–	–
CC(C)C[C@H]1C(=O)N(C)[C@@H](C(C)C)C(=O)N[C@@H](Cc2ccccc2)C(=O)N[C@H](C(=O)N(C)[C@@H](Cc2ccccc2)C(=O)N(C)[C@@H](Cc2ccccc2)C(=O)N[C@@H](C)C(=O)N2CCCCC2)CC(=O)N[C@@H](C)C(=O)N[C@@H](C(C)C)C(=O)N(C)[C@@H](CC(C)C)C(=O)N[C@@H]([C@@H](C)O)C(=O)N(C)[C@@H](Cc2ccccc2)C(=O)NCC(=O)N1C [DP-287] (AV[NMeL]T[NMeF]G[NMeL][NMeV]FD[NMeF][NMeF]A-Piperidide; lactam N-10)	–	1.4	–
CC[C@H](C)[C@H]1C(=O)N[C@H](C(=O)N2CCCCC2)CC(=O)N[C@@H](C)C(=O)N(C)[C@@H](C)C(=O)N(C)[C@@H](Cc2ccccc2)C(=O)N(C)[C@@H](CC(C)C)C(=O)N[C@@H]([C@@H](C)O)C(=O)N(C)CC(=O)N(C)[C@@H](CC(C)C)C(=O)N[C@@H](COC(C)(C)C)C(=O)N1C [DP-36] (A[NMeA][NMeF][NMeL]T[Sar][NMeL]S(tBu)[NMeI]D-Piperidide; lactam N-10)	–	27	–
